Measured values published in patent US8748624B2, “Picolinamido-propanoic acid derivatives useful as glucagon receptor antagonists” (Janssen Pharmaceutica NV, priority 2011, dated 2014).
Read-outs that look alike come from different tables or passages of the source.

Columns and labels:
[1] = target: human glucagon receptor (GCGR) (Homo sapiens (Human), UniProt P47871); assay: Inhibition of 125I-glucagon binding to membranes from HEK293 cells expressing the human glucagon receptor
Method in brief: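 Compound displacement of ¹²⁵I-glucagon (0.3 nM) was run for 2 h at room temperature in 50 mM HEPES pH 7.4 with 5 mM MgCl2, 1 mM CaCl2 and 0.2% BSA, using 6 μg/well membranes from stably transfected hGCGR HEK293 cells. Filter-bound counts gave IC50s, expressed as Ki.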

human GCGR = human GCGR (Homo sapiens (Human), UniProt P47871); assay: Cellular functional assay, cAMP readout (glucagon-stimulated cAMP in HEK293 cells expressing human GCGR); format: cell-based; conditions: hGluc-1 HEK cells, LANCE TR-FRET, IC50 converted to Ki, average if tested more than once
Method in brief: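 HEK293 cells stably transfected with full-length human GCGR were exposed to compound for 30 min before a 5-min challenge with […] (final) glucagon. Readout was TR-FRET (LANCE) cAMP versus standard curve; IC50s fitted by non-linear regression and converted to Ki values.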

[2] = membranes of hGluc-1 HEK cells, 125I-glucagon 0.3 nM, 2 hours room temperature, IC50 converted to Ki, average if tested more than once

Sequence of human GCGR (P47871 26-477): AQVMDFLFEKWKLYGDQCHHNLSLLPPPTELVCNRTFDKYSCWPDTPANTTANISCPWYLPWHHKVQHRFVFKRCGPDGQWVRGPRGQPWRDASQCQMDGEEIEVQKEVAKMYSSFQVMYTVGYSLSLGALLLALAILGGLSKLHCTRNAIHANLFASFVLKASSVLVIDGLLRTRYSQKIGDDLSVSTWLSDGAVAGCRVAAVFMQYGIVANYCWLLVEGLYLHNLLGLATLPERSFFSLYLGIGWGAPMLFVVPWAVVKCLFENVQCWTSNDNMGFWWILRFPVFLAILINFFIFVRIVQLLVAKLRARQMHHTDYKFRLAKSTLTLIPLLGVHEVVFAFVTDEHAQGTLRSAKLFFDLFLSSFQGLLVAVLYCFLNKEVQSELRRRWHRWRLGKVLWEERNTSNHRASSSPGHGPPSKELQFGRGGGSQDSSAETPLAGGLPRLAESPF
Sequence of human glucagon receptor (GCGR) (P47871 26-477): as above

Structure (SMILES): O=C(O)CCNC(=O)c1ccc(-c2cc(Cl)ccc2CNc2ccc(-c3cccc(OC(F)(F)F)c3)cc2)cn1 [Compound 129, 3-(5-(5-chloro-2-(((3′-(trifluoromethoxy)-[1,1′-biphenyl]-4-yl)amino)methyl)phenyl)picolinamido)propanoic acid]
- Ki [1, 2]: 84.6 nM
- Ki (human GCGR): 700 nM

Structure (SMILES): O=C(O)CCNC(=O)c1ccc(-c2cc(Cl)ccc2CNc2ccc(-c3cccc(C(F)(F)F)c3)cc2)cn1 [Compound 130, 3-(5-(5-chloro-2-(((3′-(trifluoromethyl)-[1,1′-biphenyl]-4-yl)amino)methyl)phenyl)picolinamido)propanoic acid]
- Ki [1, 2]: 62.6 nM
- Ki (human GCGR): 390 nM

Structure (SMILES): O=C(O)CCNC(=O)c1ccc(-c2cc(Cl)ccc2CNc2ccc(-c3ccccc3C(F)(F)F)cc2)cn1 [Compound 131, 3-(5-(5-chloro-2-(((2′-(trifluoromethyl)-[1,1′-biphenyl]-4-yl)amino)methyl)phenyl)picolinamido)propanoic acid]
- Ki [1, 2]: 71.3 nM
- Ki (human GCGR): 1750 nM

Structure (SMILES): O=C(O)CCNC(=O)c1ccc(-c2cc(Cl)ccc2CNc2ccc(-c3ccccc3OC(F)(F)F)cc2)cn1 [Compound 132, 3-(5-(5-chloro-2-(((2′-(trifluoromethoxy)-[1,1′-biphenyl]-4-yl)amino)methyl)phenyl)picolinamido)propanoic acid]
- Ki [1, 2]: 123 nM
- Ki (human GCGR): 1930 nM

Structure (SMILES): O=C(O)CCNC(=O)c1ccc(-c2cc(Cl)ccc2CNc2ccc(-c3ccccc3F)cc2)cn1 [Compound 133, 3-(5-(5-chloro-2-(((2′-fluoro-[1,1′-biphenyl]-4-yl)amino)methyl)phenyl)picolinamido)propanoic acid]
- Ki [1, 2]: 104 nM
- Ki (human GCGR): 2000 nM

Structure (SMILES): O=C(O)CCNC(=O)c1ccc(-c2cc(Cl)ccc2CNc2ccc(-c3cccc(F)c3)cc2)cn1 [Compound 134, 3-(5-(5-chloro-2-(((3′-fluoro-[1,1′-biphenyl]-4-yl)amino)methyl)phenyl)picolinamido)propanoic acid]
- Ki [1, 2]: 38.3 nM
- Ki (human GCGR): 600 nM

Structure (SMILES): O=C(O)CCNC(=O)c1ccc(-c2cc(Cl)ccc2CNc2ccc(-c3ccccc3Cl)cc2)cn1 [Compound 135, 3-(5-(5-chloro-2-(((2′-chloro-[1,1′-biphenyl]-4-yl)amino)methyl)phenyl)picolinamido)propanoic acid]
- Ki [1, 2]: 63.9 nM
- Ki (human GCGR): 3000 nM

Structure (SMILES): O=C(O)CCNC(=O)c1ccc(-c2cc(Cl)ccc2CNc2ccc(-c3ccc(F)c(F)c3)cc2)cn1 [Compound 136, 3-(5-(5-chloro-2-(((3′,4′-difluoro-[1,1′-biphenyl]-4-yl)amino)methyl)phenyl)picolinamido)propanoic acid]
- Ki [1, 2]: 28.6 nM
- Ki (human GCGR): 253 nM

Structure (SMILES): O=C(O)CCNC(=O)c1ccc(-c2cc(Cl)ccc2CNc2ccc(-c3cc(F)cc(F)c3)cc2)cn1 [Compound 137, 3-(5-(5-chloro-2-(((3′,5′-difluoro-[1,1′-biphenyl]-4-yl)amino)methyl)phenyl)picolinamido)propanoic acid]
- Ki [1, 2]: 61.1 nM
- Ki (human GCGR): 425 nM

Structure (SMILES): O=C(O)CCNC(=O)c1ccc(-c2cc(Cl)ccc2CNc2ccc(-c3ccc(F)cc3Cl)c(Cl)c2)cn1 [Compound 138, 3-(5-(5-chloro-2-(((2,2′-dichloro-4′-fluoro-[1,1′-biphenyl]-4-yl)amino)methyl)phenyl)picolinamido)propanoic acid]
- Ki [1]: 22.9 nM
- Ki (human GCGR): 121 nM

Structure (SMILES): Cc1cc(-c2ccc(NCc3ccc(Cl)cc3-c3ccc(C(=O)NCCC(=O)O)nc3)cc2Cl)ccc1F [Compound 139, 3-(5-(5-chloro-2-(((2-chloro-4′-fluoro-3′-methyl-[1,1′-biphenyl]-4-yl)amino)methyl)phenyl)picolinamido)propanoic acid]
- Ki [1, 2]: 29.1 nM
- Ki (human GCGR): 120 nM

Structure (SMILES): O=C(O)CCNC(=O)c1ccc(-c2cc(Cl)ccc2CNc2ccc(-c3ccc(OC(F)(F)F)cc3)c(Cl)c2)cn1 [Compound 140, 3-(5-(5-chloro-2-(((2-chloro-4′-(trifluoromethoxy)-[1,1′-biphenyl]-4-yl)amino)methyl)phenyl)picolinamido)propanoic acid]
- Ki [1, 2]: 21.5 nM
- Ki (human GCGR): 84.3 nM

Structure (SMILES): O=C(O)CCNC(=O)c1ccc(-c2cc(Cl)ccc2CNc2ccc(-c3c(F)cccc3Cl)cc2)cn1 [Compound 141, 3-(5-(5-chloro-2-(((2′-chloro-6′-fluoro-[1,1′-biphenyl]-4-yl)amino)methyl)phenyl)picolinamido)propanoic acid]
- Ki [1, 2]: 30.9 nM
- Ki (human GCGR): 138 nM

Structure (SMILES): O=C(O)CCNC(=O)c1ccc(-c2cc(Cl)ccc2CNc2ccc(-c3ccc(F)cc3C(F)(F)F)c(Cl)c2)cn1 [Compound 142, 3-(5-(5-chloro-2-(((2-chloro-4′-fluoro-2′-(trifluoromethyl)-[1,1′-biphenyl]-4-yl)amino)methyl)phenyl)picolinamido)propanoic acid]
- Ki [1, 2]: 31.3 nM
- Ki (human GCGR): 225 nM

Structure (SMILES): COc1ccc(-c2ccc(NCc3ccc(Cl)cc3-c3ccc(C(=O)NCCC(=O)O)nc3)cc2)c(Cl)c1 [Compound 143, 3-(5-(5-chloro-2-(((2′-chloro-4′-methoxy-[1,1′-biphenyl]-4-yl)amino)methyl)phenyl)picolinamido)propanoic acid]
- Ki [1, 2]: 28.2 nM
- Ki (human GCGR): 106 nM

Structure (SMILES): O=C(O)CCNC(=O)c1ccc(-c2cc(Cl)ccc2CNc2ccc(-c3ccc(F)c(C(F)(F)F)c3)c(Cl)c2)cn1 [Compound 144, 3-(5-(5-chloro-2-(((2-chloro-4′-fluoro-3′-(trifluoromethyl)-[1,1′-biphenyl]-4-yl)amino)methyl)phenyl)picolinamido)propanoic acid]
- Ki [1, 2]: 12.4 nM
- Ki (human GCGR): 23 nM

Structure (SMILES): Cc1ccc(C(=O)Nc2ccc(-c3ccc(Cl)cc3)cc2)c(-c2ccc(C(=O)NCCC(=O)O)nc2)c1 [Compound 145, 3-(5-(2-((4′-chloro-[1,1′-biphenyl]-4-yl)carbamoyl)-5-methylphenyl)picolinamido)propanoic acid]
- Ki [1, 2]: 36.3 nM
- Ki (human GCGR): 68.1 nM

Structure (SMILES): Cc1cc(-c2ccc(NCc3ccc(Cl)cc3-c3ccc(C(=O)NCCC(=O)O)nc3)cc2)ccc1F [Compound 146, 3-(5-(5-chloro-2-(((4′-fluoro-3′-methyl-[1,1′-biphenyl]-4-yl)amino)methyl)phenyl)picolinamido)propanoic acid]
- Ki [1, 2]: 28.1 nM
- Ki (human GCGR): 268 nM

Structure (SMILES): O=C(O)CCNC(=O)c1ccc(-c2cc(Cl)ccc2CNc2ccc(-c3ccc(C(F)(F)F)cc3Cl)cc2)cn1 [Compound 147, 3-(5-(5-chloro-2-(((2′-chloro-4′-(trifluoromethyl)-[1,1′-biphenyl]-4-yl)amino)methyl)phenyl)picolinamido)propanoic acid]
- Ki [1, 2]: 15.7 nM
- Ki (human GCGR): 60 nM

Structure (SMILES): Cc1cc(Cl)ccc1-c1ccc(NCc2ccc(Cl)cc2-c2ccc(C(=O)NCCC(=O)O)nc2)cc1 [Compound 148, 3-(5-(5-chloro-2-(((4′-chloro-2′-methyl-[1,1′-biphenyl]-4-yl)amino)methyl)phenyl)picolinamido)propanoic acid]
- Ki [1, 2]: 18.7 nM
- Ki (human GCGR): 34 nM

Structure (SMILES): O=C(O)CCNC(=O)c1ccc(-c2cc(Cl)ccc2CNc2ccc(-c3ccc(F)cc3C(F)(F)F)cc2)cn1 [Compound 149, 3-(5-(5-chloro-2-(((4′-fluoro-2′-(trifluoromethyl)-[1,1′-biphenyl]-4-yl)amino)methyl)phenyl)picolinamido)propanoic acid]
- Ki [1, 2]: 40 nM
- Ki (human GCGR): 430 nM

Structure (SMILES): O=C(O)CCNC(=O)c1ccc(-c2cc(Cl)ccc2CNc2ccc(-c3ccc(F)c(Cl)c3)cc2)cn1 [Compound 150, 3-(5-(5-chloro-2-(((3′-chloro-4′-fluoro-[1,1′-biphenyl]-4-yl)amino)methyl)phenyl)picolinamido)propanoic acid]
- Ki [1, 2]: 27.7 nM
- Ki (human GCGR): 73.3 nM

Structure (SMILES): Cc1cc(F)ccc1-c1ccc(NCc2ccc(Cl)cc2-c2ccc(C(=O)NCCC(=O)O)nc2)cc1 [Compound 151, 3-(5-(5-chloro-2-(((4′-fluoro-2′-methyl-[1,1′-biphenyl]-4-yl)amino)methyl)phenyl)picolinamido)propanoic acid]
- Ki [1, 2]: 16.5 nM
- Ki (human GCGR): 113 nM

Structure (SMILES): O=C(O)CCNC(=O)c1ccc(-c2cc(Cl)ccc2CNc2ccc(-c3ccc(F)cc3Cl)cc2)cn1 [Compound 152, 3-(5-(5-chloro-2-(((2′-chloro-4′-fluoro-[1,1′-biphenyl]-4-yl)amino)methyl)phenyl)picolinamido)propanoic acid]
- Ki [1, 2]: 31.6 nM
- Ki (human GCGR): 140 nM

Structure (SMILES): Cc1cc(Cl)ccc1-c1ccc(NC(=O)c2ccc(Cl)cc2-c2ccc(C(=O)NCCC(=O)O)nc2)cc1 [Compound 153, 3-(5-(5-chloro-2-((4′-chloro-2′-methyl-[1,1′-biphenyl]-4-yl)carbamoyl)phenyl)picolinamido)propanoic acid]
- Ki [1, 2]: 32.9 nM
- Ki (human GCGR): 28 nM

Structure (SMILES): CC(Nc1ccc(-c2ccc(F)cc2)cc1)c1ccc(Cl)cc1-c1ccc(C(=O)NCCC(=O)O)nc1 (centres unmarked) [Compound 155, 3-(5-(5-chloro-2-(1-((4′-fluoro-[1,1′-biphenyl]-4-yl)amino)ethyl)phenyl)picolinamido)propanoic acid]
- Ki [1, 2]: 235 nM
- Ki (human GCGR): 2200 nM

Structure (SMILES): CC(=O)c1ccc(-c2ccc(NCc3ccc(Cl)cc3-c3ccc(C(=O)NCCC(=O)O)nc3)cc2)cc1 [Compound 156, 3-(5-(2-(((4′-acetyl-[1,1′-biphenyl]-4-yl)amino)methyl)-5-chlorophenyl)picolinamido)propanoic acid]
- Ki [1, 2]: 37.8 nM
- Ki (human GCGR): 161 nM

Structure (SMILES): C=C(C)c1ccc(CNc2ccc(-c3ccc(F)cc3)cc2)c(-c2ccc(C(=O)NCCC(=O)O)nc2)c1 [Compound 157, 3-(5-(2-(((4′-fluoro-[1,1′-biphenyl]-4-yl)amino)methyl)-5-(prop-1-en-2-yl)phenyl)picolinamido)propanoic acid]
- Ki [1, 2]: 33.5 nM
- Ki (human GCGR): 113 nM
